Test results published in US11376337B2, “Expression of neuropeptides” (California Institute of Technology, priority 2017, dated 2022).
“Also recorded” adds a separate entry of the source.

Assays:
Nk3R [1] = target: T1, Nk3R (Homo sapiens, UniProt P29371); conditions: trials for schizophrenia, bipolar and panic disorder; cited from earlier work
T1 sequence (P29371 1-465): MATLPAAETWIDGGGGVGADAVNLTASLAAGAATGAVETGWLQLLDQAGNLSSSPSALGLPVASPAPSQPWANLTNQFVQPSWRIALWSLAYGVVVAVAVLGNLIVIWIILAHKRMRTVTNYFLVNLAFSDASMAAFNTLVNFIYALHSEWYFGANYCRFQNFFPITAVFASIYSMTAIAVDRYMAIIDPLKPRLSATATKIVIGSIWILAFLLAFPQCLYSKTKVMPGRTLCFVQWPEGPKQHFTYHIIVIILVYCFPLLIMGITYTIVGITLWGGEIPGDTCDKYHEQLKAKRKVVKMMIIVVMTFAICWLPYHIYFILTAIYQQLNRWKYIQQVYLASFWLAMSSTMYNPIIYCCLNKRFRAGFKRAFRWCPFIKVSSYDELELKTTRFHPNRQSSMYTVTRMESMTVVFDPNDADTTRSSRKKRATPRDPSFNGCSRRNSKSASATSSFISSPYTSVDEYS

Nk3R [2] = target: T2, Nk3R (Mus musculus, UniProt P47937); assay: Acoustic startle response, osanetant; conditions: SIS mice; acute systemic osanetant
T2 sequence (P47937 1-452): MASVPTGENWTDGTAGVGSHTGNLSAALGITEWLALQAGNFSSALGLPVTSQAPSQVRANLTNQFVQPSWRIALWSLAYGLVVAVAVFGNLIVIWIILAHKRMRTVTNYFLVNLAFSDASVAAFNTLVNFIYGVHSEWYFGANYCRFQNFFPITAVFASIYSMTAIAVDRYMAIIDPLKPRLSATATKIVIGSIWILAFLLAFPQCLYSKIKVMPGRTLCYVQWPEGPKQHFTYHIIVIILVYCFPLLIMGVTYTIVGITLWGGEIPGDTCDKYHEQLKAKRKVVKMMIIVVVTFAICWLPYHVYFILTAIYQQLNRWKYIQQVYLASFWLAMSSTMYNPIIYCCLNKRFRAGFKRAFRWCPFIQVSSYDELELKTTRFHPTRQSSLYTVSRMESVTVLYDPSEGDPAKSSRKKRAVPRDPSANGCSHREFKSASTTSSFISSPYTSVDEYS

Nk3R [3] = target: T2, Nk3R; assay: Looming disk assay (freezing), osanetant; conditions: for acute (and thereby persistent) freezing to innate threatening stimulus (looming disk): osanetant injection into CeA
Nk3R [4] = target: T2, Nk3R; assay: Resident intruder assay (aggression), osanetant; conditions: for SIS-induced aggression: osanetant microinfusion into DMH
Nk3R [5] = target: T2, Nk3R; assay: Tone fear conditioning test (freezing), osanetant; format: in vivo, mice; set-up: endogenous in cells; host or cells: living mice (wild-type C57Bl6/N males, Charles River); systemic i.p. dosing or microinfusion into dBNSTa, DMH, CeA; conditions: for acute (and thereby persistent) freezing to conditioned threatening stimulus (tone): osanetant injection into CeA; for SIS-induced persistent freezing to conditioned tone: osanetant microinfusion into dBNSTa, 375 ng per site, 20 min before test
Nk3R [6] = target: T2, Nk3R; assay: Social interaction assay, osanetant; conditions: SIS mice; acute systemic osanetant
Nk3R [7] = target: T2, Nk3R; assay: Return to housing with pre-isolation cagemates after SIS, osanetant; format: in vivo, mice; set-up: endogenous in cells; host or cells: living mice (wild-type C57Bl6/N males, Charles River); systemic i.p. dosing or microinfusion into dBNSTa, DMH, CeA; conditions: osanetant during SIS; data not shown
Nk3R [8] = target: T2, Nk3R; assay: Shock reactivity (footshock), osanetant; format: in vivo, mice; set-up: endogenous in cells; host or cells: living mice (wild-type C57Bl6/N males, Charles River); systemic i.p. dosing or microinfusion into dBNSTa, DMH, CeA
[9] = literature statement; cited from earlier work
Nk3R [10] = target: T2, Nk3R; assay: Tail rattles during looming disk assay, osanetant; conditions: SIS mice; acute systemic osanetant
[11] = SIS mice, osanetant 5 mg/kg i.p. 20 min prior to assay
[12] = SIS mice, osanetant microinfusion into DMH
[13] = osanetant 5 mg/kg i.p. 20 min prior to assay, during stimulus
[14] = osanetant daily during two-week SIS, tested off-drug
[15] = SIS mice, osanetant injection into CeA
[16] = SIS mice, osanetant microinfusion into dBNSTa

- SIS-enhanced responding in acoustic startle assay (Nk3R [2]): blocked; also recorded: attenuated
- SIS-induced persistent (post) freezing to looming disk (Nk3R [3]; [11]): blocked; also recorded: attenuated
- acute (and thereby persistent) freezing to innate threatening stimulus (looming disk) (Nk3R [3]; SIS mice): reduced
- acute (and thereby persistent) freezing to innate threatening stimulus (looming disk) (Nk3R [3]; SIS mice, listed as Osanetant): selectively blocked
- persistent responses to looming stimulus (Nk3R [3]; [12]): had no effect
- SIS-induced persistent freezing to looming disk (Nk3R [3]; SIS mice, osanetant microinfusion into dBNSTa, 375 ng per site, 20 min before test): selectively inhibited
- SIS-induced persistent freezing to looming disk (Nk3R [3]; SIS mice, osanetant microinfusion into dBNSTa, 375 ng per site, 20 min before test, listed as Osanetant): selectively blocked
- freezing during presentation of looming disk (Nk3R [3]; [13]): no significant differences
- persistent freezing to looming disk (Nk3R [3]; [14]): prevented
- aggression promoted by sexual experience (Nk3R [4]; 2 weeks co-habitation with a female, no isolation, systemic osanetant): had no effect
- SIS-enhanced aggression (Nk3R [4]; [11]): blocked; also recorded: strongly reduced
- aggression (Nk3R [4]; [15]): unaffected
- SIS-induced aggression (Nk3R [4]; SIS mice): abolished
- SIS-induced aggression (Nk3R [4]; SIS mice, listed as Osanetant): selectively blocked
- aggression (Nk3R [4]; [16]): no effect
- SIS-enhanced aggression (Nk3R [4]; [14]): prevented
- SIS-induced persistent (post) freezing to fear-conditioned tone (Nk3R [5]; [11]): blocked; also recorded: attenuated
- acute (and thereby persistent) freezing to conditioned threatening stimulus (tone) (Nk3R [5]; SIS mice): reduced
- acute (and thereby persistent) freezing to conditioned threatening stimulus (tone) (Nk3R [5]; SIS mice, listed as Osanetant): selectively blocked
- persistent responses to conditioned tone (Nk3R [5]; [12]): had no effect
- SIS-induced persistent freezing to conditioned tone (Nk3R [5]; SIS mice): selectively inhibited
- SIS-induced persistent freezing to conditioned tone (Nk3R [5]; SIS mice, listed as Osanetant): selectively blocked
- freezing during presentation of fear-conditioned tone (Nk3R [5]; [13]): no significant differences
- persistent freezing to fear conditioned tone (Nk3R [5]; [14]): prevented
- SIS-induced decreased social interaction (time in social zone) (Nk3R [6]): blocked; also recorded: attenuated
- fighting after return to housing with pre-isolation cagemates (Nk3R [7]): without any subsequent fighting observed
- SIS-induced increased shock reactivity (Nk3R [8]; [11]): blocked
- reactivity to footshock (SIS-enhanced) (Nk3R [8]; [15]): reduced; also recorded: blocked
- responses to footshock (Nk3R [8]; [12]): had no effect
- shock reactivity (Nk3R [8]; [16]): no effect
- SIS-induced increased tail rattling (Nk3R [10]): blocked; also recorded: attenuated
Structure (SMILES): CC(=O)N(C)C1(c2ccccc2)CCN(CCC[C@]2(c3ccc(Cl)c(Cl)c3)CCCN(C(=O)c3ccccc3)C2)CC1 [osanetant]
- efficacy in clinical trials (Nk3R [1]): lack of efficacy
- tolerability in clinical trials (Nk3R [1]): well tolerated
- SIS-induced persistent freezing to looming disk (Nk3R [3]; SIS mice, osanetant microinfusion into ACC): failed to yield significant effects; also recorded: No significant effects
- SIS-induced persistent freezing to looming disk (Nk3R [3]; SIS mice, osanetant microinfusion into striatum): failed to yield significant effects; also recorded: No significant effects
- SIS-induced increase in shock reactivity (Nk3R [8]; [14]): a trend to protection; also recorded: reduced, but not significantly
- crossing of the blood-brain barrier [9]: crosses the blood-brain barrier
